Source: patent publication US20050074879A1, “Antisense oligonucleotide modulation of STAT3 expression” (priority 2000, published 2005)
Oligonucleotides are written 5' to 3', each unit as a sugar letter and its base; * is a phosphorothioate linkage, no mark a phosphodiester; rarer units and linkages stand in square brackets, end groups in braces. Plain capitals give the bases only. e = 2'-O-(2-methoxyethyl) (MOE); [5mC] = 5-methylcytosine; d = 2'-deoxy (DNA)

tested on: Human STAT3 mRNA; assay: Inhibition of human STAT3 mRNA levels in A549 cells, 75 nM, real-time PCR (Table 13); format: cell-based; details: 75 nM oligonucleotide with LIPOFECTIN, real-time PCR PPS 199, percent inhibition relative to untreated control cells, average of 2 experiments
How it was run: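 A549 cells at 65–75% confluency were transfected in duplicate with 75 nM oligonucleotide plus […] Lipofectin for 4–7 h at 37° C and harvested 16–24 h later. STAT3 mRNA was quantified by real-time RT-PCR with primer-probe set PPS 199 and normalized to RiboGreen total RNA. Inhibition is relative to untreated controls.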

Substance	% Inhib (inhibition of human STAT 3 mRNA levels)
337350 (antisense eG*eA*e[5mC]*eA*eA*dT*dA*d[5mC]*dT*dT*dT*d[5mC]*d[5mC]*dG*dA*eA*eT*eG*e[5mC]*e[5mC]) [compound 337350]	84%
337351 (antisense e[5mC]*eT*eA*e[5mC]*e[5mC]*dT*dG*dG*dG*dT*d[5mC]*dA*dG*d[5mC]*dT*eT*e[5mC]*eA*eG*eG) [compound 337351]	74%
337352 (antisense eA*eT*eA*eA*eA*d[5mC]*dT*dT*dG*dG*dT*d[5mC]*dT*dT*d[5mC]*eA*eG*eG*eT*eA) [compound 337352]	80%
337353 (antisense eG*eT*e[5mC]*eG*eT*dT*dG*dG*dT*dG*dT*d[5mC]*dA*d[5mC]*dA*e[5mC]*eA*eG*eA*eT) [compound 337353]	81%
337354 (antisense eT*eG*e[5mC]*eA*eG*dG*dT*d[5mC]*dG*dT*dT*dG*dG*dT*dG*eT*e[5mC]*eA*e[5mC]*eA) [compound 337354]	62%
337355 (antisense eA*eT*eT*eG*e[5mC]*dT*dG*d[5mC]*dA*dG*dG*dT*d[5mC]*dG*dT*eT*eG*eG*eT*eG) [compound 337355]	61%
337356 (antisense eA*eT*eG*eG*eT*dA*dT*dT*dG*d[5mC]*dT*dG*d[5mC]*dA*dG*eG*eT*e[5mC]*eG*eT) [compound 337356]	75%
337357 (antisense eG*eG*eT*e[5mC]*eA*dA*dT*dG*dG*dT*dA*dT*dT*dG*d[5mC]*eT*eG*e[5mC]*eA*eG) [compound 337357]	71%
337358 (antisense eG*eA*e[5mC]*eA*eT*d[5mC]*dG*dG*d[5mC]*dA*dG*dG*dT*d[5mC]*dA*eA*eT*eG*eG*eT) [compound 337358]	77%
337359 (antisense e[5mC]*eA*eA*eT*eG*dA*dA*dT*d[5mC]*dT*dA*dA*dA*dG*dT*eG*e[5mC]*eG*eG*eG) [compound 337359]	57%
337360 (antisense eT*eG*e[5mC]*eA*eT*d[5mC]*dA*dA*dT*dG*dA*dA*dT*d[5mC]*dT*eA*eA*eA*eG*eT) [compound 337360]	71%
337361 (antisense e[5mC]*eA*eA*eA*e[5mC]*dT*dG*d[5mC]*dA*dT*d[5mC]*dA*dA*dT*dG*eA*eA*eT*e[5mC]*eT) [compound 337361]	61%
337362 (antisense eA*eT*eT*eT*e[5mC]*d[5mC]*dA*dA*dA*d[5mC]*dT*dG*d[5mC]*dA*dT*e[5mC]*eA*eA*eT*eG) [compound 337362]	69%
337363 (antisense eA*eA*e[5mC]*eT*eG*d[5mC]*d[5mC]*d[5mC]*dT*d[5mC]*d[5mC]*dT*dG*d[5mC]*dT*eG*eA*eG*eG*eG) [compound 337363]	63%
337364 (antisense eG*eG*eT*eG*eA*dG*dG*dG*dA*d[5mC]*dT*d[5mC]*dA*dA*dA*e[5mC]*eT*eG*e[5mC]*e[5mC]) [compound 337364]	70%
337365 (antisense e[5mC]*eA*eG*eT*e[5mC]*dG*dT*dA*dT*d[5mC]*dT*dT*dT*d[5mC]*dT*eG*e[5mC]*eA*eG*e[5mC]) [compound 337365]	84%
337366 (antisense eA*eG*eA*eT*eA*dG*d[5mC]*dA*dG*dA*dA*dG*dT*dA*dG*eG*eA*eG*eA*eT) [compound 337366]	66%
337367 (antisense eA*eA*eA*eG*eT*dG*d[5mC]*d[5mC]*d[5mC]*dA*dG*dA*dT*dT*dG*e[5mC]*eT*e[5mC]*eA*eA) [compound 337367]	82%

Substance	% Inhib (inhibition of human STAT 3 mRNA levels)
337368 (antisense eT*eT*eT*eT*eT*dA*dA*dA*dA*dG*dT*dG*d[5mC]*d[5mC]*d[5mC]*eA*eG*eA*eT*eT) [compound 337368]	59%
337369 (antisense e[5mC]*eA*eG*eA*eT*d[5mC]*dA*d[5mC]*d[5mC]*d[5mC]*dA*d[5mC]*dA*dT*dT*e[5mC]*eA*e[5mC]*eT*e[5mC]) [compound 337369]	88%
337370 (antisense eT*eG*e[5mC]*eA*eT*dT*dT*dA*dG*dA*dT*dA*dA*dA*dA*eG*e[5mC]*eA*eG*eA) [compound 337370]	78%
337371 (antisense eG*eA*eA*e[5mC]*eA*d[5mC]*dA*dT*d[5mC]*d[5mC]*dT*dT*dA*dT*dT*eT*eG*e[5mC]*eA*eT) [compound 337371]	76%
337372 (antisense eA*eT*e[5mC]*eA*eT*dG*dG*dG*dT*d[5mC]*dT*d[5mC]*dA*dG*dA*eG*eA*eA*e[5mC]*eA) [compound 337372]	88%
337373 (antisense e[5mC]*eA*e[5mC]*eA*eT*d[5mC]*d[5mC]*d[5mC]*d[5mC]*dT*dG*dA*dT*d[5mC]*dA*eT*eG*eG*eG*eT) [compound 337373]	70%
337374 (antisense eA*eG*eA*e[5mC]*eA*dT*dT*dT*d[5mC]*d[5mC]*dT*dT*dT*dT*dT*e[5mC]*eT*e[5mC]*e[5mC]*e[5mC]) [compound 337374]	67%
337375 (antisense eA*e[5mC]*e[5mC]*eA*eG*dG*dA*dG*dG*d[5mC]*dA*d[5mC]*dT*dT*dG*eT*e[5mC]*eT*eA*eA) [compound 337375]	89%
337376 (antisense eG*e[5mC]*eA*eG*eG*d[5mC]*dA*d[5mC]*d[5mC]*dA*dG*dG*dA*dG*dG*e[5mC]*eA*e[5mC]*eT*eT) [compound 337376]	83%
337377 (antisense eG*e[5mC]*eT*eT*eA*d[5mC]*dA*dG*dA*dA*dA*d[5mC]*dA*dG*dG*e[5mC]*eA*eG*eA*eA) [compound 337377]	78%
337378 (antisense eA*eG*eG*eT*eG*dG*d[5mC]*d[5mC]*dT*dG*dT*dG*dG*d[5mC]*dA*eT*eT*eT*eG*e[5mC]) [compound 337378]	16%
337379 (antisense eG*eT*eA*eT*eG*dT*dA*dG*d[5mC]*dT*dA*dT*dA*dG*dG*eT*eG*eG*e[5mC]*e[5mC]) [compound 337379]	71%
337380 (antisense eG*e[5mC]*eA*eA*eT*dG*d[5mC]*d[5mC]*dA*dG*dG*dA*dG*dT*dA*eT*eG*eT*eA*eG) [compound 337380]	83%
337381 (antisense eT*eT*eA*eA*eA*dA*dA*dG*dT*dG*d[5mC]*dA*dA*dT*dG*e[5mC]*e[5mC]*eA*eG*eG) [compound 337381]	86%
337382 (antisense eG*eG*e[5mC]*eT*eT*dA*dG*dA*dT*dA*dG*dT*d[5mC]*d[5mC]*dT*eA*eT*e[5mC]*eT*eT) [compound 337382]	84%
337383 (antisense eT*eA*eA*eA*eA*dA*dG*dA*dA*dA*d[5mC]*d[5mC]*dT*dA*dG*eG*eG*e[5mC]*eT*eT) [compound 337383]	81%
337385 (antisense eT*eT*eA*eA*eG*dT*dT*dT*d[5mC]*dT*dT*dA*dA*dA*dT*eA*e[5mC]*eA*eG*eA) [compound 337385]	70%
